Experimental data reported in US9855338B2, “Polyglutamate-amino acid conjugates and methods” (priority 2005, dated 2018).
Read-outs that look alike come from different tables or passages of the source.

Columns and labels:
[1] = Experimental: Each polymer (5 mg) was added into a pH buffer (1 mL) and the mixture was sonificated for 2 minutes. Then the mixture was allowed to settle at room temperature for 30 minutes. Solubility was observed by eye and recorded on the scale of 1 to 10, where 1 is highly insoluble, 5 is a cloudy suspension, and 10 is a highly clear solution.
[2] = system: B16F0 melanoma cells; experiment: In vitro cellular uptake, fluorescence microscopy; type: cell-based, murine
Experimental: B16F0 cells were purchased from ATCC (CRL-6322, ATCC American Type Culture Collection, Rockville, Md.) and were grown in Dulbecco's modified Eagle's medium (DMEM) with 10% fetal bovine serum and 100 units/mL penicillin. The cells were grown at 37° C. in 5% CO2 environment. The culture medium was removed and discarded. The cells were rinsed with Dulbecco Phosphate Buffer Solution (DPBS), Trypsin-ethylenediaminetetra-acetic acid (EDTA) solution (0.5 ml) was added, and the cells were observed under an inverted microscope to make sure that they were dispersed. Complete growth medium (6.0 to 8.0 ml) was added, and the cells were aspirated by gently pipetting. The cell suspension in appropriate aliquots was transferred to new culture plates. […]
PGA-97-A-Texas Red and Texas Red dye (TR) were separately dissolved in DPBS. […] The treated cells were examined under an OLYMPUS fluorescence microscope, and the excitation and emission wavelengths were measured at 591 and 612 nm, respectively.
Three sample containers containing approximately the same number of B16F0 melanoma cells were incubated with PGA-97-A-Texas Red at 1 μM, PGA-97-A-Texas Red at 0.1 μM, and Texas Red alone at 10 μM, respectively, for 24 hours. Photographs of the in vitro cellular uptake of each container were taken with the camera on an Olympus fluorescence microscope system. […]

[3] = system: murine melanoma cells (B16F0) tumor; experiment: In vivo tumor tissue uptake, syngeneic tumor model, cryostat sections; conditions: 24 hours after intravenous administration, nu/nu mice
Experimental: Animals: Nu/nu mice, female, 6-8 weeks (22-25 g). Solitary tumors were produced by injecting 2×10^5 murine melanoma cells (B16F0) to the right thigh subcutaneously. 5-7 days later when the tumor reached about 500 mm^3, the PGA-97-A-Texas Red or Texas Red dye was injected intravenously to the tumor.
PGA-97-A-Texas Red and Texas Red were separately dissolved in DPBS and were filtrated through a 0.2 μm filter before being administrated to the animals. 100 μl of PGA-97-A-Texas Red (TR loading at 2.5%) or Texas Red at 0.1-10 mM was intravenously injected to the tumor using the syngeneic tumor model in Example 19. Tumors were dissected, embedded under optimal cutting temperature and frozen in liquid nitrogen. Cryostat sections (6-15 μm) were made and were fixed with 4% paraformaldehyde with 0.03M of sucrose on ice for 10-30 min. The sections were washed 2 times with DPBS, stained with Hoechst 33342 (1 μg/ml) for 10 minutes, and washed again with DPBS. The sections were then mounted with a fluorescent mounting medium (DakoCytomation) and covered with a coverslip. The cryostat sections of the tumor were observed under laser scan confocal microscopy.
Photographs of the cryostat cross-section of in vivo tumor tissue uptake of PGA-97-A-Texas Red and Texas Red dye alone were taken. For each, three different cross-sections were taken for a total of six images. […]

| Solubility ([1]; pH 2) | Solubility ([1]; pH 3) | Solubility ([1]; pH 4) | Solubility ([1]; pH 5) | Solubility ([1]; pH 6) | Solubility ([1]; pH 7) | Solubility ([1]; pH 7.4) | Substance | cellular uptake of Texas red dye ([2]; 0.1 μM to 10 μM, 8-24 hours, fluorescence microscope) | cells that were red (cellular uptake of dye) ([2]; 10 μM, 24 hours, B16F0 melanoma cells) [%] | accumulation of Texas red dye in tumor cells in vivo [3] |
| --- | --- | --- | --- | --- | --- | --- | --- | --- | --- | --- |
| 10 | 10 | 10 | 10 | 10 | 10 | 10 | Poly-(γ-glutamyl)-poly-L-glutamine [PGPG-19,800] |  |  |  |
|  |  |  |  |  |  |  | Texas Red | not | 0 | not |
